Patent publication US20190015379A1, “USE OF DIANHYDROGALACTITOL AND ANALOGS AND DERIVATIVES THEREOF, TOGETHER WITH RADIATION, TO TREAT NON-SMALL-CELL CARCINOMA OF THE LUNG AND GLIOBLASTOMA MULTIFORME AND SUPPRESS PROLIFERATION OF CANCER STEM CELLS” (DelMar Pharmaceuticals, Inc., priority 2014, published 2019)

Legend:
[1] = cited from earlier work
[2] = tested on: GBM; conditions: cited from earlier work
[3] = tested on: A549 human lung adenocarcinoma xenograft tumors; assay: A549 NSCLC xenograft tumor growth in Rag2 mice; format: in vivo, female Rag2 mice
Description: The purpose of the study reported in this Example is to evaluate the activity of dianhydrogalactitol in in vivo models of drug-resistant NSCLC in comparison to other drugs, including cisplatin. Rag2 mice bearing subcutaneous human lung adenocarcinoma xenograft tumors of either TKI-resistant (H1975) or TKI-sensitive (A549) origin were treated.
Two human NSCLC cell lines, A549 (TKI-sensitive) and H1975 (TKI-resistant), were used as xenograft tumor models in female Rag2 mice. The mice were 6 to 8 weeks of age and weighed 18-23 grams. 10 mice were used per group.
Cisplatin was used in normal saline at a dose of 5 mg/kg. Administration was intravenous.
Dianhydrogalactitol was used in 0.9% sodium chloride for injection at 1.5 mg/kg to 6 mg/kg. Administration was intraperitoneal.
Treatment was initiated at a tumor volume of 100 mm^3 to 150 mm^3.
On day 0, tumor cells were implanted subcutaneously into mice in a volume of 50 μL in Matrigel™ using a 28-gauge needle; injection of the tumor cells was in the back of the mice. Mice were randomly assigned to groups based on tumor volume.
Tumor growth was monitored by measuring tumor dimensions with calipers beginning on the first day of treatment. Tumor length and width measurements were obtained each Monday, Wednesday, and Friday. Tumor volumes were calculated according to the equation L×W^2/2 with the length (in mm) being defined as the longer axis of the tumor. Animals were weighed at the time of tumor measurement. Tumors were allowed to grow to a maximum of 800 mm^3 before termination.

[4] = dianhydrogalactitol 1.5 mg/kg i.p. (group 3)
[5] = dianhydrogalactitol 3 mg/kg i.p. (group 4)

## dianhydrogalactitol
[1]; GBM chemotherapy, historical data
  Recovery: Within 7-8 days
[1]; human, in vivo
  DLT: Hematologic
  Nadir: 18 to 21 days
  Other Severe Toxicities Reported (>2%): None
[2]; GBM, Eagan (1979), Stupp (2005)
  Median O.S. (XRT + Chemo): 67 weeks
[2]; cumulative IV dose of 125 mg/m^2 in a 35 day cycle, brain cancer, Eagan 1979
  efficacy in combination with radiation versus radiation alone: superior to radiation alone
[3]; [4]
  day on which a mean tumor volume of 200 mm^3 was observed: 45 days
  day on which a mean tumor volume of 400 mm^3 was reached: 67 days
  tumor doubling time: 22
[3]; dianhydrogalactitol 1.5 mg/kg i.p. M, W, F for 3 weeks (group 3)
  number of animals remaining on study on day 70: 7/10
[3]; dianhydrogalactitol 3 mg/kg i.p.
  tumor growth delay compared to untreated controls: 26 days
[3]; [5]
  day on which a mean tumor volume of 200 mm^3 was observed: 42 days
  day on which a mean tumor volume of 400 mm^3 was reached: 81 days
  tumor doubling time: 39
[3]; dianhydrogalactitol 3 mg/kg i.p. M, W, F for 3 weeks (group 4)
  number of animals remaining on study on day 70: 6/10
[3]; dianhydrogalactitol 6 mg/kg i.p. (group 5)
  day on which a mean tumor volume of 200 mm^3 was observed: 54 days
[3]; dianhydrogalactitol 6 mg/kg i.p. (group 5; stopped after 3 doses)
  number of animals remaining on study on day 70: 8/10
